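Briefly, cells in 96-well plates were exposed to five compound concentrations for 48 h, and endpoints were estimated by linear interpolation. At the GI50, growth is halved. At the TGI there is no net growth.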
What was measured:
Assay in all cases: inhibition of tumour cell growth, NCI panel, 48 h
SK-MEL-2 melanoma = tested on: SK-MEL-2 melanoma
A549 NSCLC = tested on: A549 NSCLC
EKVX NSCLC = tested on: EKVX NSCLC
TK-10 renal = tested on: TK-10 renal
K-562 leukemia = tested on: K-562 leukemia
LOX IMVI melanoma = tested on: LOX IMVI melanoma
OVCAR-3 ovarian = tested on: OVCAR-3 ovarian
MDA-MB-435 = tested on: MDA-MB-435
MDA-MB-231 breast = tested on: MDA-MB-231 breast
MCF7 breast = tested on: MCF7 breast

| Structure (SMILES) | TGI (SK-MEL-2 melanoma) [µM] | TGI (A549 NSCLC) [µM] | TGI (EKVX NSCLC) [µM] | TGI (TK-10 renal) [µM] | TGI (K-562 leukemia) [µM] | TGI (LOX IMVI melanoma) [µM] | TGI (OVCAR-3 ovarian) [µM] | GI50 (SK-MEL-2 melanoma) [µM] | GI50 (A549 NSCLC) [µM] | GI50 (EKVX NSCLC) [µM] | GI50 (MDA-MB-435) [µM] | TGI (MDA-MB-435) [µM] | GI50 (TK-10 renal) [µM] | GI50 (OVCAR-3 ovarian) [µM] | GI50 (K-562 leukemia) [µM] | GI50 (MDA-MB-231 breast) [µM] | TGI (MDA-MB-231 breast) [µM] | GI50 (LOX IMVI melanoma) [µM] | GI50 (MCF7 breast) [µM] | TGI (MCF7 breast) [µM] |
| --- | --- | --- | --- | --- | --- | --- | --- | --- | --- | --- | --- | --- | --- | --- | --- | --- | --- | --- | --- | --- |
| CN(C)NC(=O)NC12CC3CC(CC(C3)C1)C2 | > 100 | > 100 | > 100 | > 10 | > 100 | > 100 |  |  |  |  |  |  |  |  |  |  |  |  |  |  |
| CC(=O)O[C@H]1CSC[C@@H](OC(C)=O)C1[N+](=O)[O-] (stereo not given in full) | 66.9 | > 100 | > 100 | > 100 | > 100 |  | 55.3 |  |  |  |  |  |  |  |  |  |  |  |  |  |
| Cc1ccc2nc(CN(CCN(Cc3nc4ccc(C)cc4[nH]3)Cc3nc4ccc(C)cc4[nH]3)Cc3nc4ccc(C)cc4[nH]3)[nH]c2c1 | 3.85 | 3.54 | 2.75 | 2.95 | 3.76 | 3.03 | 3.31 | 2.16 | 1.86 | 1.44 | 1.62 | 2.98 | 1.48 | 1.84 | 1.72 | 1.88 | 3.3 | 1.66 |  |  |
| CCOC(=O)C(Oc1ccc(OC)c2c1C(=O)CCC2)c1ccccc1 (stereo not given) | > 100 | > 100 | > 100 | > 100 | > 100 | > 100 | > 100 |  |  |  |  |  |  |  |  |  |  |  |  |  |
| COc1ccccc1NC(=O)c1sc2ncn(CCOc3ccccc3)c(=O)c2c1C | > 50 | > 50 | > 50 | > 50 | 4.39 | > 50 | > 50 | 3.37 | 3.36 | 5.08 |  |  | > 50 | 2.91 | 0.761 | 2.61 | > 50 | 1.52 | 3.55 | > 50 |
| CCN(CC)c1ccc(N=Nc2ccc(-c3nc4cccnc4s3)cc2)cc1 | > 100 | > 100 | > 100 | > 100 | > 100 |  | > 100 |  |  |  |  |  |  |  |  |  |  |  |  |  |
| NN=C1/C(=C\c2ccccc2)CCC/C1=C/c1ccccc1 | > 100 | > 100 | 89.1 | > 100 | 44 | 54.3 | > 100 |  |  |  |  |  |  |  |  |  |  |  |  |  |
| CN(C(=O)C12C3C4C1C1C2C3C41C#N)C(C)(C)C (stereo not given) | > 100 | > 100 | > 100 | > 100 | > 100 | > 100 | > 100 |  |  |  |  |  |  |  |  |  |  |  |  |  |
| O=C(CC1(O)C(=O)Nc2ccc(Cl)cc21)c1ccc(C(=O)NCC2CCC3(CC2)OOC2(CCCCC2)OO3)cc1 (stereo not given) | 4.78 |  | 4.3 | 3.28 | 4.48 | 8.85 |  | 2.16 |  | 1.59 |  |  | 1.78 |  | 1.89 | 2.68 | 7.72 | 0.301 | 2.37 | 9.88 |
| O=C1CCNC/C1=C\c1ccccc1 | > 100 | 92.2 | > 100 | 61.2 | > 100 | 35.5 | 54.8 |  |  |  |  |  |  |  |  |  |  |  |  |  |
| Nc1ncc(CN2CCCC2)c(-c2ccccc2O)n1 |  | > 750 |  | > 750 |  | > 750 | > 750 |  |  |  |  |  |  |  | > 750 |  |  |  |  |  |
| CC1=Nc2ccccc2S/C1=C1/C=NC(=NC#N)N=C1C(=O)Nc1cccc(Cl)c1 | > 100 | > 100 | > 100 | > 100 | > 100 | > 100 | > 100 |  |  |  |  |  |  |  |  |  |  |  |  |  |
| O=C(CC1(O)C(=O)Nc2ccccc21)c1cccc(O)c1 (stereo not given) | > 100 | > 100 | > 100 | > 100 | > 100 | > 100 | > 100 |  |  |  |  |  |  |  |  |  |  |  |  |  |
| N#C/C(=C/c1ccc([N+](=O)[O-])o1)c1ccccc1 | > 100 | > 100 | > 100 | > 100 | > 100 | > 100 | > 100 |  |  |  |  |  |  |  |  |  |  |  |  |  |
| CCn1c(=O)nc2n(-c3ccc(SC)cc3)c3ccccc3nc-2c1=O | > 100 | > 100 | > 100 | > 100 | > 100 |  | > 100 |  |  |  |  |  |  |  |  |  |  |  |  |  |
| C=C(C)[C@@H]1CC[C@]2(C(=O)O)CC[C@]3(C)[C@H](CC[C@@H]4[C@@]5(C)CCC(N)C(C)(C)[C@@H]5CC[C@]43C)[C@@H]12 (stereo not given in full) | 3.69 |  |  |  | 3.36 |  | 3.66 | 1.95 |  |  | 1.75 | 3.32 |  | 1.9 | 0.682 | 1.88 | 3.69 |  |  |  |
| COc1cccc(NC(=O)/C(CS(=O)(=O)CCC(C(C)=O)C(C)=O)=N\NC(C)(C)C)c1 | > 100 | > 100 | > 100 | > 100 | > 100 | > 100 | > 100 |  |  |  |  |  |  |  |  |  |  |  |  |  |
